The nature of data set [1]: Toxicity in C57BL/6 mouse inoculated with mouse MC38 cells assessed as body weight loss at 100 mg/kg, po twice a day for 2 weeks by five days on/two days off schedule relative to control. The class given is organism-based, MC-38. The conditions noted are these: in vivo, 336 h.
Data set [2] can be described thus: Oral bioavailability in Sprague-Dawley rat at 20 to 25 mg/kg measured up to 24 hrs by LC-MS/MS analysis. It counts as ADME, organism-based. The conditions noted are these: in vivo, dose 20-25 mg/kg.
Data set [3] can be described thus: Volume of distribution at steady state in Sprague-Dawley rat at 5 mg/kg, iv measured up to 24 hrs by LC-MS/MS analysis. The class given is ADME, organism-based. The conditions noted are these: in vivo, read-out: Vdss.
The nature of data set [4]: Half life in Sprague-Dawley rat at 20 to 25 mg/kg, po measured up to 24 hrs by LC-MS/MS analysis. It counts as ADME, organism-based. The conditions noted are these: in vivo, dose 20-25 mg/kg.
Data set [5] in a line: Dose normalized Cmax in Sprague-Dawley rat at 20 to 25 mg/kg, po measured up to 24 hrs by LC-MS/MS analysis. The class given is ADME, organism-based. The conditions noted are these: in vivo, dose 20-25 mg/kg.
A short description of data set [6]: Tmax in Sprague-Dawley rat at 20 to 25 mg/kg, po measured up to 24 hrs by LC-MS/MS analysis. The note with it: in vivo, dose 20-25 mg/kg. It counts as ADME, organism-based.
Data set [7] has as its system Mus musculus. As to the kind of experiment: Immunomodulatory activity in mouse MC38 cells inoculated C57BL/6 mouse syngeneic model assessed as […] in M1 like TAM (CD86+ CD11b+ F4/80+)at 100 mg/kg, po twice a day for 2 weeks by five days on/two days off schedule relative to control. It counts as functional, MC-38.
The nature of data set [8]: Clearance in Sprague-Dawley rat at 5 mg/kg, iv measured up to 24 hrs by LC-MS/MS analysis. The class given is ADME, organism-based. The note with it: in vivo.
For data set [9], the system named is Mus musculus. Briefly: Immunomodulatory activity in mouse MC38 cells inoculated C57BL/6 mouse syngeneic model assessed as decrease in M2 like TAM (CD206+ CD11b F4/80+) at 100 mg/kg, po twice a day for 2 weeks by five days on/two days off schedule relative to control. It counts as functional, MC-38.
A short description of data set [10]: Half life in Sprague-Dawley rat at 5 mg/kg, iv measured up to 24 hrs by LC-MS/MS analysis. It counts as ADME, organism-based. The conditions noted are these: in vivo.
Another data set has as its system MC-38. As to the kind of experiment: Antitumor activity against mouse MC38 cells inoculated C57BL/6 mouse syngeneic model assessed as tumor growth inhibition at 100 mg/kg, po twice a day for 2 weeks by five days on/two days off schedule relative to control. The class given is functional. The conditions noted are these: MC-38, po, 336 h, read-out: TGI.
The test system of a further data set is NFS-60. Briefly: Antiproliferative activity against mouse NFS-60 cells transfected with human ETV6-CSF1R assessed as reduction in cell viability measured after 72 hrs by MTS method. It counts as functional, cell-based. The note with it: NFS-60, 72 h. Background: Formazan colour is commonly taken as a measure of viable cells.
The test system of the next data set is BaF3. Briefly: Antiproliferative activity against mouse BaF3 cells transfected with human ETV6-CSF1R assessed as reduction in cell viability measured after 72 hrs by MTS method. The note with it: BaF3, 72 h.
Data set [11] concerns the target T1, Aurora kinase A (Homo sapiens) (UniProt O14965).
T1 sequence (whole entry): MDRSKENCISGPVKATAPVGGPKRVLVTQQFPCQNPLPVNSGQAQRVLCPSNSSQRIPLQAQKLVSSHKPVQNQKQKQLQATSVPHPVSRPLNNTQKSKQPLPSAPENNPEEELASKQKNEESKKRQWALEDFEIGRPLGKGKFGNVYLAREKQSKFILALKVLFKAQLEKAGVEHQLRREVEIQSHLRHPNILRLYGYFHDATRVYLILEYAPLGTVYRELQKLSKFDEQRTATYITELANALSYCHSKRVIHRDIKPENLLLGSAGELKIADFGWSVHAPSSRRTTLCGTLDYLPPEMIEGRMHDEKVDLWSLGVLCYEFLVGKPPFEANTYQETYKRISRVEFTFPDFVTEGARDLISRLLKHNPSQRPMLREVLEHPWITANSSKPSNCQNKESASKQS
Briefly: Inhibition of recombinant GST-AURKA (residues Ser123 to Ser401) (unknown origin) expressed in Sf9 insect cells using tetra(-LRRASLG) peptide as substrate at 1 uM incubated for 90 mins by ATP Kinase Glo assay. (In general: Kinase-Glo measures the ATP left after a reaction by luminescence.)

Data set [12] has as its system BMDM. Briefly: Growth inhibition of CSF2-induced mouse BMDM cell assessed as inhibition of M1 like macrophage growth for 3 days by WST-8 assay. The conditions noted are these: 72 h.
The target in the next data set is Aurora kinase B (Homo sapiens, UniProt Q96GD4). Briefly: Inhibition of human recombinant full length GST-AURKB using tetra(-LRRASLG) peptide as substrate incubated for 20 mins by ATP Kinase Glo assay. On the set-up: species or system Sf9.
Chain of Aurora kinase B (Q96GD4 whole entry): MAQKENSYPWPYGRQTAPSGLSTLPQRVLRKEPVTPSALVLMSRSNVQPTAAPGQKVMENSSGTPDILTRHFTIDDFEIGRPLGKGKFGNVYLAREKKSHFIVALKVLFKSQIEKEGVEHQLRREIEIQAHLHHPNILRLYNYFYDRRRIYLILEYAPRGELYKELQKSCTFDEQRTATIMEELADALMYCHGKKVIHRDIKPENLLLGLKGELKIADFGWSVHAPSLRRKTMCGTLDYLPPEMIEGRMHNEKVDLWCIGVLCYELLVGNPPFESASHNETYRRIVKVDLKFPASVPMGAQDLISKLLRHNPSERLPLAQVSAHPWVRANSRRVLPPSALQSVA
The subject of data set [13] is BMDM. As to the kind of experiment: Growth inhibition of CSF1-induced mouse BMDM cell assessed as inhibition of M2 like macrophage growth incubated for 3 days by WST-8 assay. The conditions noted are these: 72 h.

The term bioavailability denotes dose-corrected exposure relative to a reference, in per cent. A higher bioavailability goes with much systemic uptake. Broadly, the half-life is the time needed for the level to fall by half in the phase considered. Read a low half-life as fast loss. As a reminder, the Tmax is the time at which the peak concentration occurs. One may read the clearance as the rate of elimination divided by the concentration. Low values mean inefficient removal, high ones efficient removal. In general, EC50 refers to the concentration that produces a half-maximal response. Usually inhibition stands for how much of the control response was suppressed. A word on the IC50: it is the concentration that inhibits the measured activity by half.

On to `CN(C)c1ccc2c(Oc3ccc(NC(=O)NCc4ccc(C(F)(F)F)nc4)cc3)ncnc2c1.CS(=O)(=O)O`, for which the Activity entry in [1] is “Non-Toxic”. In data set [2], this molecule had a bioavailability of 34.9%. Also, in [3], the Vd was 1 L/kg. For the same molecule, the results for the half-life in data set [4] and in data set [10] were 11.6 h and 2.4 h, respectively. The same molecule displayed a Cmax/dose in data set [5] of 68 ng/mL. Besides, in [6], the Tmax amounted to 0.5 h. The “fold change (FC)” value with Mus musculus [7] came to 3; in the data set on Mus musculus [9], 2.5. Moreover, the clearance in data set [8] was determined as 8.9 mL/min/kg. In the data set on MC-38, the inhibition in vivo at 100 mg/kg is 59%.
Turning to `FC(F)(F)c1ccc(CNc2ccc(Cc3c[nH]c4ncc(Cl)cc34)cn2)cn1` [PEXIDARTINIB], the figures for the EC50 in the data set with NFS-60 and in the data set on BaF3 were 294 nM and 200 nM, respectively. Also, the inhibition in data set [11] turned out to be 63%. Also, the figures for the IC50 in the data set on BMDM [12], on Aurora kinase B and in the data set with BMDM [13] were greater than 10000 nM, 643 nM and 56 nM, respectively.
